The source of these data is patent US20260027067A1, “TRIENTINE LIQUID DOSAGE FORMS” (BIOPHORE INDIA PHARMACEUTICALS PVT. LTD., priority 2022, published 2026).

SMILES strings stand for the structures. Where a name gives a salt, the structure may show the parent alone.

The conditions of series [1]: crystalline powder; cited from earlier work.
Series [2] in a line: Selection of sweeteners and flavoring agents (formulation trials). The note with it: used as sweetener in trientine tetrahydrochloride oral solution.

Take `NCCNCCNCCN` [Trientine dihydrochloride salt, Trientine dihydrochloride]: the hygroscopicity result in series [1] was “hygroscopic”.
With `O=C1NS(=O)(=O)c2ccccc21.[Na]` [saccharin sodium], in series [2], the “compatibility of the sweetener in the formulation” value is “incompatibility in the form of milky white curdling”.
For `Cl.Cl.Cl.Cl.NCCNCCNCCN` [Trientine tetrahydrochloride salt, Trientine tetrahydrochloride], in series [1], the hygroscopicity entry is listed as “not hygroscopic”.
